Here are results for ten molecules from patent USRE50799E1, “JAK1 selective inhibitors and uses thereof” (Hangzhou HighlightII Pharmaceutical Co., Ltd, priority 2016, dated 2026).

One assay deals with T1, Jak1 (Homo sapiens, UniProt P23458).
T1 construct: Reaction Biology Corp (performed the assay)
As to the kind of experiment: Jak1 biochemical assay (33P-ATP filter-binding, Reaction Biology Corp). To be noted: for Jak1 inhibition, statement in words: biochemical assays, Jak1 versus Jak2; for IC50: biochemical kinase assay, 33P-ATP, filter-binding, read-out: Jak1 (range of IC50). As to the method:
(§1) Example B1: Jak1, 2, 3, Tyk2 Biochemical Assays
(§2) Assays were performed by Reaction Biology Corp, Malvern, Pa. The procedure is briefly described below.
(§3) Base Reaction buffer; 20 mM Hepes (pH 7.5), 10 mM MgCl2, 1 mM EGTA, 0.02% Brij35, 0.02 mg/ml BSA, 0.1 mM Na3VO4, 2 mM DTT, 1% DMSO. Required cofactors are added individually to each kinase reaction
(§4) 1. Prepare indicated substrate in freshly prepared Base Reaction Buffer
(§5) 2. Deliver any required cofactors to the substrate solution above
(§6) 3. Deliver indicated kinase into the substrate solution and gently mix
(§7) 4. Deliver compounds in DMSO into the kinase reaction mixture by Acoustic technology (Echo550; nanoliter range), incubate for 20 minutes at room temperature
(§8) 5. Deliver ^33P-ATP (specific activity 10 μCi/μl) into the reaction mixture to initiate the reaction.
(§9) 6. Incubate kinase reaction for 2 hours at room temperature
(§10) 7. Reactions are spotted onto P81 ion exchange paper
(§11) 8. Detect kinase activity by filter-binding method.

Assay [1] has as its system IL-6 induced STAT3 phosphorylation. As to the kind of experiment: Human whole blood p-STAT3 assay, IL-6 stimulation. The class given is cell-based. The note with it: for IC50: 0.25 h, IL-6 100 ng/ml 15 min, pSTAT3 ELISA, read-out: IL-6 (range of IC50, induced STAT3 phosphorylation); for Inhibition of IL-6 induced STAT3 phosphorylation, statement in words: versus TPO induced. Here is the method:
(§12) Example B2: Human Whole Blood p-STAT3 Assay
(§13) 1. Whole blood samples from human donors
2. IL-6 (R&D systems; Cat #206-IL)
(§14) 5. ELISA kit for pSTAT3 (Invitrogen; Cat # KH00481)
(§15) 1. 150 μl heparinized blood sample/tube.
(§16) 2. Compounds at various concentrations is added to the blood, incubate for 10 min at RT (10 doses, 2 replicates for each compound).
(§17) 3. Add IL-6 (final concentration: 100 ng/ml) or TPO (final conc: 50 ng/ml) to the blood for 15 min.
(§18) 4. After the stimulation, add 0.6 mL RBC lysis buffer (Qiagen 79217) and mix and rock for 1-2 minutes at room temperature before centrifugation to remove lyzed RBCs. This step may be repeated once if RBCs are not lyzed completely. Harvest the WBCs.
(§19) 5. Add 200 μl cell lysis buffer, ice 30 min.
(§20) 7. Transfer the supernatant to a new tube as cell lysate.
(§21) 8. Run ELISA procedure according to the product instruction of ELIA kit.
For orientation: ELISA stands for enzyme-linked immunosorbent assay.

For assay [2], the system named is TPO induced STAT3 phosphorylation. As to the kind of experiment: Human whole blood p-STAT3 assay, TPO stimulation. The class given is cell-based. To be noted: for IC50: 0.25 h, TPO 50 ng/ml 15 min, pSTAT3 ELISA, read-out: TPO (range of IC50, induced STAT3 phosphorylation). As to the method: as §12, §13
3. Thrombopoietin (TPO; R&D systems; Cat #288-TP)
as §14, §15, §16, §17, §18, §19, §20, §21

A further assay addresses T2, Jak2 (Homo sapiens, UniProt O60674).
T2 construct: Reaction Biology Corp (performed the assay)
As to the kind of experiment: Jak2 biochemical assay (33P-ATP filter-binding, Reaction Biology Corp). To be noted: biochemical kinase assay, read-out: Jak2 (range of IC50). Here is the method:
as §1, §2, §3, §4, §5, §6, §7, §8, §9, §10, §11

Structures are written as SMILES.

T1 sequence (P23458 whole entry): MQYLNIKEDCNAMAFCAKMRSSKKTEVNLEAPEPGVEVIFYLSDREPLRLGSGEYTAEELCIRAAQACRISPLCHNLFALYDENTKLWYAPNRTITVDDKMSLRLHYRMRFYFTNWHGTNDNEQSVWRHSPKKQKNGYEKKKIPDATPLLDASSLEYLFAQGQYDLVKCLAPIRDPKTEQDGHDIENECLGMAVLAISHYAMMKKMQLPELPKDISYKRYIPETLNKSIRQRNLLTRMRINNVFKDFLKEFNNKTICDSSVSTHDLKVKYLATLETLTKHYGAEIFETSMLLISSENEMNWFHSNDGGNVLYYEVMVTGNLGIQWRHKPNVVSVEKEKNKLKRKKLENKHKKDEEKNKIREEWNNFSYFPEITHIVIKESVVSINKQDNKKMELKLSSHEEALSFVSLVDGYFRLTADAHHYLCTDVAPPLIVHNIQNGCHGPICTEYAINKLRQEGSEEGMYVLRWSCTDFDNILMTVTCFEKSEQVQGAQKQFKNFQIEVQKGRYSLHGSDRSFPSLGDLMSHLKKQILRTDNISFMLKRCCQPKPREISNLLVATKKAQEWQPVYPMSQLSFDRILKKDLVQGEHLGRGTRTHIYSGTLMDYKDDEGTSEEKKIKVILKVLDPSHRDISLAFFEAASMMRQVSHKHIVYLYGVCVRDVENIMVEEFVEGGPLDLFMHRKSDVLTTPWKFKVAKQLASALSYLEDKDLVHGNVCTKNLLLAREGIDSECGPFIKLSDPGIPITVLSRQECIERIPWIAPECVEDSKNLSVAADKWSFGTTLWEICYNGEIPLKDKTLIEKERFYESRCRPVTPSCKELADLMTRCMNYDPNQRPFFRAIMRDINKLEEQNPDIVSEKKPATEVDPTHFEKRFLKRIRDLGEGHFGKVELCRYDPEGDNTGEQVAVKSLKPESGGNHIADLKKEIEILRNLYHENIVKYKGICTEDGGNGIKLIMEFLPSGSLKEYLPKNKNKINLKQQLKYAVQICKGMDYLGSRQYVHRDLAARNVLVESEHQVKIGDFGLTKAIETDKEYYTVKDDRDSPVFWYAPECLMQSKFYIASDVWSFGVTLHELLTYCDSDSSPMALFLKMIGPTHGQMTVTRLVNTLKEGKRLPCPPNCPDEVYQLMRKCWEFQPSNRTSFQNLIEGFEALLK
T2 sequence (O60674 whole entry): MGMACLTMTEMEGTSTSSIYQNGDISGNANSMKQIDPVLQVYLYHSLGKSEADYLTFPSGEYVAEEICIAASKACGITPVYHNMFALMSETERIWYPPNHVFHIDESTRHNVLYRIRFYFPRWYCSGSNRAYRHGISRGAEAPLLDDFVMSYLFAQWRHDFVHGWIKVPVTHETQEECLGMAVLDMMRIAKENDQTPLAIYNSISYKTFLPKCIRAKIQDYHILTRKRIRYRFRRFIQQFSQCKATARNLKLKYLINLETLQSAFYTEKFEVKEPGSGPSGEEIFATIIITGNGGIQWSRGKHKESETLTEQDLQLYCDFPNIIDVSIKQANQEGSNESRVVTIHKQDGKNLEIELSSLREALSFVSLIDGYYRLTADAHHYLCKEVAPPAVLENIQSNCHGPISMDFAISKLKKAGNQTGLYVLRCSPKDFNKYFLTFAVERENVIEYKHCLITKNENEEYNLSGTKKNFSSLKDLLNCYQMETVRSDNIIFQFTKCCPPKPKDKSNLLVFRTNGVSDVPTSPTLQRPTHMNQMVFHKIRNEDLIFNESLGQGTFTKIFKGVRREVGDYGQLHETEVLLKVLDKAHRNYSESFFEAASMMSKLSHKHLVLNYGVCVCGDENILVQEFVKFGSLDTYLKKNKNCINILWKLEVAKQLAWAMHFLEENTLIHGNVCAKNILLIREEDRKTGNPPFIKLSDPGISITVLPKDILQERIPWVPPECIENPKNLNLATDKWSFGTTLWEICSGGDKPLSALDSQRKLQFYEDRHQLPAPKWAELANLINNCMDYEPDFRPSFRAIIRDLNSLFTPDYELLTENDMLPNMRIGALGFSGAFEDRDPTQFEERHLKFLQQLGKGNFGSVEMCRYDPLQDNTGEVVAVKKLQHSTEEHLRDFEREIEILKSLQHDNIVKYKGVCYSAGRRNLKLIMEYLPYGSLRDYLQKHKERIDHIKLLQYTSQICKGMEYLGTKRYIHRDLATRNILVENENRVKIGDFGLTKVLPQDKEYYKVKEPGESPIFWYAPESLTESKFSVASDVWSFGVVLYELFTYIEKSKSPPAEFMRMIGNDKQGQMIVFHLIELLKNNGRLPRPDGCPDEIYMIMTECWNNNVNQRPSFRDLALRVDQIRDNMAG

As for `C[C@@H](O)c1nc2cnc3ccoc3c2n1[C@H]1CC[C@H](CC#N)OC1` [Example 4, 2-[(2R,5S)-5-[2-[(R)-1-Hydroxyethyl]furo[3,2-b]imidazo[4,5-d]pyridin-1-yl]tetrahydropyran-2-yl] acetonitrile], the “Jak1 inhibition, statement in words” value at Jak1 was “potent and selective Jak1 inhibitors”. Further, the IC50 – broadly, the point on the concentration scale where inhibition reaches its midpoint – at Jak1 is less than 10 nM; in assay [1] it was less than 5 µM; in assay [2], greater than 100 µM; on Jak2 it was 100 to 1000 nM. Further, in assay [1], the “Inhibition of IL-6 induced STAT3 phosphorylation, statement in words” value was “selective inhibition of IL-6 induced STAT3 phosphorylation, but not TPO induced STAT3 phosphorylation”.
Turning to `N#C[C@H]1CC[C@H](n2c(CO)nc3cnc4ccoc4c32)CC1` [Example 2, trans-4-[2-(Hydroxymethyl)furo[3,2-b]imidazo[4,5-d]pyridin-1-yl]cyclohexanecarbonitrile], the IC50 at Jak1 lay in the range of 100 to 1000 nM.
In the case of `C[C@@H](O)c1nc2cnc3ccoc3c2n1C1CCN(C(=O)NCC(F)(F)F)CC1` [Example 6, (R)-4-[2-(1-Hydroxyethyl)-1H-furo[3,2-b]imidazo[4,5-d]pyridin-1-yl]-N-(2,2,2-trifluoroethyl)piperidine-1-carboxamide], the IC50 at Jak1 and at Jak2 was greater than 1000 nM each time.
With `C[C@@H](O)c1nc2cnc3ccoc3c2n1[C@H]1CC[C@H](CC#N)CC1` [Example 3, 2-[trans-4-[2-[(R)-1-Hydroxyethyl]furo[3,2-b]imidazo[4,5-d]pyridin-1-yl]cyclohexyl] acetonitrile], the “Jak1 inhibition, statement in words” value at Jak1 was “potent and selective Jak1 inhibitors”. For the same molecule, the IC50 is less than 10 nM on Jak1, less than 5 µM in assay [1], greater than 100 µM in assay [2] and 100 to 1000 nM at Jak2. In addition, the “Inhibition of IL-6 induced STAT3 phosphorylation, statement in words” value in assay [1] is “selective inhibition of IL-6 induced STAT3 phosphorylation, but not TPO induced STAT3 phosphorylation”.
`N#CC[C@H]1CC[C@H](n2c(CO)nc3cnc4ccoc4c32)CO1` [Example 7, 2-[(2R,5S)-5-[2-(Hydroxymethyl)furo[3,2-b]imidazo[4,5-d]pyridin-1-yl]tetrahydropyran-2-yl] acetonitrile]: the “Jak1 inhibition, statement in words” value at Jak1 is “potent and selective Jak1 inhibitors”. The IC50 was less than 10 nM on Jak1, less than 5 µM in assay [1], greater than 100 µM in assay [2] and 100 to 1000 nM at Jak2. Further, in assay [1], the “Inhibition of IL-6 induced STAT3 phosphorylation, statement in words” value is given as “selective inhibition of IL-6 induced STAT3 phosphorylation, but not TPO induced STAT3 phosphorylation”.
Consider `N#CC[C@@H]1CC[C@H](n2c(CO)nc3cnc4ccoc4c32)CO1` [Example 8, 2-[(2S,5S)-5-[2-(Hydroxymethyl)furo[3,2-b]imidazo[4,5-d]pyridin-1-yl]tetrahydropyran-2-yl] acetonitrile], for which the IC50 on Jak1 was 100 to 1000 nM; at Jak2, greater than 1000 nM.
With `CCc1nc2cnc3ccoc3c2n1[C@H]1CC[C@H](CC#N)OC1` [Example 9, 2-[(2R,5S)-5-[2-Ethylfuro[3,2-b]imidazo[4,5-d]pyridin-1-yl]tetrahydropyran-2-yl] acetonitrile], on Jak1, the “Jak1 inhibition, statement in words” value is “potent and selective Jak1 inhibitors”; the IC50 was less than 10 nM. At Jak2, the IC50 lay in the range of 100 to 1000 nM.
In the case of `C[C@@H](O)c1nc2cnc3ccoc3c2n1[C@H]1CC[C@H](C#N)CC1` [Example 1, trans-4-[2-[(R)-1-Hydroxyethyl]-1H-furo [3,2-b]imidazo [4,5-d]pyridin-1-yl] cyclohexanecarbonitrile], on Jak1, the IC50 lay within 100 to 1000 nM.
Take `Cc1nc2cnc3ccoc3c2n1[C@H]1CC[C@H](CC#N)OC1` [Example 11, 2-[(2R,5S)-5-[2-Methylfuro [3,2-b]imidazo [4,5-d]pyridin-1-yl]tetrahydropyran-2-yl] acetonitrile]: the IC50 is less than 10 nM on Jak1, less than 5 µM in assay [1], 20 to 100 µM in assay [2] and 10 to 100 nM at Jak2. The “Activity in the TPO induced STAT3 phosphorylation assay, statement in words” value in assay [2] was “some activity”.
For the molecule `C[C@@H](O)c1nc2cnc3ccoc3c2n1C1CCN(C(=O)NCC(F)(F)F)C1` (stereo partly drawn) [Example 5, 3-[2-[(R)-1-Hydroxyethyl]-1H-furo[3,2-b]imidazo[4,5-d]pyridin-1-yl]-N-(2,2,2-trifluoroethyl)pyrrolidine-1-carboxamide], the IC50 at Jak1 and at Jak2 was greater than 1000 nM each time.
